Values quoted from earlier work in patent publication US6468258B1, “Plastic compositions including vitamin E for medical containers and methods for providing such compositions and containers” (Baxter International Inc., priority 1997, dated 2002).

Tested on: red blood cells
Conditions: Vitamin E added directly to red blood cells; as reported in U.S. Pat. No. 5,037,419

## Vitamin E
  hemolysis: lower hemolysis
